{"source": "patent US12195427B2", "about": "“MASP-2 inhibitors and methods of use” (priority 2018, dated 2025)", "target": "MASP-2 CCP2-SP (Homo sapiens (Human), UniProt O00187)", "sequence (O00187 445-686)": "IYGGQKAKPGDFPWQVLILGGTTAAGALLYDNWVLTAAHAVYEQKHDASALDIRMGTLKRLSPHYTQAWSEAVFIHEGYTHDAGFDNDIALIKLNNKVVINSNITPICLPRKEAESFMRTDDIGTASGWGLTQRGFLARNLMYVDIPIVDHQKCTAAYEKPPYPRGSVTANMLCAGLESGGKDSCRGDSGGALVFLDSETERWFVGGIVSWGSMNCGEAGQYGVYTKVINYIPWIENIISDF", "sequence (O00187 364-432 partner)": "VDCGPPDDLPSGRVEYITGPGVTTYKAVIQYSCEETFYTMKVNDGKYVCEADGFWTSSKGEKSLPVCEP", "assay": "MASP-2 co-crystallization, X-ray crystallography and structure analysis (H-bonds, van der Waals contacts);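 for Ligand-pharmacophore element distance, pharmacophore element C2: distance from averaged pharmacophore element to bound ligand; missing value means element absent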;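 for Ligand-pharmacophore element distance, pharmacophore element C3: distance from averaged pharmacophore element to bound ligand; missing value means element absent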;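 for Ligand-pharmacophore element distance, pharmacophore element C4: distance from averaged pharmacophore element to bound ligand; missing value means element absent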;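 for Ligand-pharmacophore element distance, pharmacophore element C5: distance from averaged pharmacophore element to bound ligand; missing value means element absent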", "design": "van der Waals contact distance, MASP-2 HIS 483 atom CD2 / van der Waals contact distance, MASP-2 HIS 483 atom NE2 / van der Waals contact distance, SER 654 C to compound atom / van der Waals contact distance, SER 654 O to compound atom / van der Waals contact distance, TRP 655 C to compound atom / van der Waals contact distance, MASP-2 GLY 528 atom CA / van der Waals contact distance TRP 655 atom CZ3 / van der Waals contact distance TRP 655 atom N / van der Waals contact distance TRP 655 atom CE3 / van der Waals contact distance GLY 656 atom C / van der Waals contact distance GLY 656 atom CA / van der Waals contact distance GLY 656 atom O / van der Waals contact distance, MASP-2 TYR 607 atom CD1 / van der Waals contact distance, MASP-2 PRO 606 atom O / d(C3,CA1) / d(CA1,N1)2 / d(H4,O1) / d(H4,O2) / d(O1,O2) / d(CA1,O2) / d(CA6,O1) / d(CA6,O2) / d(CA1,C5) / d(O2,H3) / d(N2,C2) / d(CA5,N2) / d(N2,C4) / d(N2,C6) / d(N2,CA3) / d(N2,O3) / d(O4,H2): unit not given beside the values", "summary_of_the_method": "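Inhibitor complexes were obtained by soaking crystals of E. coli-expressed human MASP-2 CCP2-SP constructs, then flash-cooling in liquid nitrogen. Structures solved by molecular replacement (1Q3X search model) from synchrotron diffraction; where several poses existed, only one was analyzed, and nonbonded contacts listed can include H-bonds.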", "key": {"[1]": {"conditions": "Table A5-1 pharmacophore: distance between elements, S2/S1 region"}, "[2]": {"conditions": "Table A5-2 pharmacophore distance, S3/S4 region"}, "[3]": {"conditions": "Table A7-1, between pharmacophore elements of the bound compound"}, "[4]": {"conditions": "Table A7-2, between pharmacophore elements of the bound compound"}}, "note": "Structures can show the parent of a compound that is named as a salt."}
{"smiles": "Cc1nc(N)ccc1CNC(=O)[C@H](C)NC(=O)[C@H]1C[C@H](Cc2cc(Cl)cc(Cl)c2)CN1", "note": "[compound 1435, (2R,4S)—N—((S)-1-(((6-Amino-2-methylpyridin-3-yl)methyl)amino)-1-oxopropan-2-yl)-4-(3,5-dichlorobenzyl)pyrrolidine-2-carboxamide Dihydrochloride]", "values": [{"measurement": "H-bond distance to MASP-2 ASP 627 atom OD2", "setting": "Table A1 (H-Bonds), ASP 627 OD2", "value": 3.32}, {"measurement": "H-bond distance to MASP-2 GLY 656 atom N", "setting": "Table A1 (H-Bonds), GLY 656 N", "value": 3.26}, {"measurement": "H-bond distance to MASP-2 GLY 656 atom O", "setting": "Table A1 (H-Bonds), GLY 656 O", "value": 2.79}, {"measurement": "H-bond distance to MASP-2 SER 654 atom O", "setting": "Table A1 (H-Bonds), SER 654 O", "value": 3.01}, {"measurement": "H-bond distance to MASP-2 SER 657 atom O", "setting": "Table A1 (H-Bonds), SER 657 O", "value": 2.84}, {"measurement": "van der Waals contact distance, MASP-2 amino acid atom to compound atom", "setting": "Table A2", "value": 3.83}, {"measurement": "van der Waals contact distance, MASP-2 HIS 483 atom CD2", "setting": "Table A2-1", "value": 3.7}, {"measurement": "van der Waals contact distance, MASP-2 HIS 483 atom NE2", "setting": "Table A2-1", "value": 3.6}, {"measurement": "van der Waals contact distance, MASP-2 PHE 529 atom CD2", "setting": "Table A2-3", "value": 3.61}, {"measurement": "van der Waals contact distance, MASP-2 amino acid atom to compound atom", "setting": "Table A2-7: SER 628 (CB, O, OG)", "value": 3.67}, {"measurement": "van der Waals contact distance, TRP 655 CA to compound atom", "setting": "Table A2-12", "value": 3.41}, {"measurement": "Ligand-pharmacophore element distance, pharmacophore element C2", "setting": "Table A4-1, element C2", "value": 0}, {"measurement": "Ligand-pharmacophore element distance, pharmacophore element C3", "setting": "Table A4-1, element C3", "value": 0.15}, {"measurement": "Ligand-pharmacophore element distance, pharmacophore element C4", "setting": "Table A4-1, element C4", "value": 1.37}, {"measurement": "Ligand-pharmacophore element distance, pharmacophore element C5", "setting": "Table A4-1, element C5", "value": 0}, {"measurement": "Ligand-pharmacophore element distance, pharmacophore element C6", "setting": "Table A4-1, element C6", "value": 0.38}, {"measurement": "Ligand-pharmacophore element distance, pharmacophore element C7", "setting": "Table A4-1, element C7", "value": 0}, {"measurement": "Ligand-pharmacophore element distance, pharmacophore element CA1", "setting": "Table A4-1, element CA1", "value": 0.6}, {"measurement": "Ligand-pharmacophore element distance, pharmacophore element CA2", "setting": "Table A4-1, element CA2", "value": 0.8}, {"measurement": "Ligand-pharmacophore element distance, pharmacophore element CA3", "setting": "Table A4-1, element CA3", "value": 0}, {"measurement": "Ligand-pharmacophore element distance, pharmacophore element CA4", "setting": "Table A4-1, element CA4", "value": 0}, {"measurement": "Ligand-pharmacophore element distance, pharmacophore element CA5", "setting": "Table A4-1, element CA5", "value": 0}, {"measurement": "Ligand-pharmacophore element distance, pharmacophore element CA6", "setting": "Table A4-1, element CA6", "value": 0}, {"measurement": "d(C3,CA1)", "setting": "[1]", "value": 2.85}, {"measurement": "d(CA1,N1)2", "setting": "[1]", "value": 1.38}, {"measurement": "d(CA1,O1)", "setting": "[1]", "value": 4.36}, {"measurement": "d(CA1,O2)", "setting": "[1]", "value": 3.86}, {"measurement": "d(H4,O1)", "setting": "[1]", "value": 4.37}, {"measurement": "d(H4,O2)", "setting": "[1]", "value": 3.79}, {"measurement": "d(O1,O2)", "setting": "[1]", "value": 3.37}, {"measurement": "d(N2,C4)", "setting": "[2]", "value": 8.24}, {"measurement": "d(N2,C4)4", "setting": "[2]", "value": 8.24}, {"measurement": "d(N2,C6)", "setting": "[2]", "value": 7.51}, {"measurement": "d(N2,CA2)", "setting": "[2]", "value": 6.00}, {"measurement": "d(O2,H3)", "setting": "[2]", "value": 4.33}, {"measurement": "d(O2,N2)", "setting": "[2]", "value": 2.62}, {"measurement": "a(C3, CA1, O1)", "setting": "Table A6-1 pharmacophore angle", "value": 149.49}, {"measurement": "a(CA1, O1, O2)", "setting": "Table A6-1 pharmacophore angle", "value": 106.19}, {"measurement": "a(O1, O2, H4)", "setting": "Table A6-1 pharmacophore angle", "value": 131.96}, {"measurement": "a(N1, CA1, O1) b)", "setting": "Table A6-1 pharmacophore angle, Methyl-amino-pyridine compounds", "value": 173.74}, {"measurement": "a(O1, O2, H3)", "setting": "Table A6-2 pharmacophore angle", "value": 147.24}, {"measurement": "a(O1, O2, N2)", "setting": "Table A6-2 pharmacophore angle", "value": 139.75}, {"measurement": "a(O2, N2, C4)", "setting": "Table A6-2 pharmacophore angle", "value": 164.21}, {"measurement": "a(O2, N2, C4) 2", "setting": "Table A6-2 pharmacophore angle", "value": 121.06}, {"measurement": "a(O2, N2, C6)", "setting": "Table A6-2 pharmacophore angle", "value": 99.38}, {"measurement": "a(O2, N2, CA2)", "setting": "Table A6-2 pharmacophore angle", "value": 157.86}, {"measurement": "Pharmacophore torsion angle a(C3, CA1, O1, H4)", "setting": "[3]", "value": 24.44}, {"measurement": "Pharmacophore torsion angle a(H4, O1, O2, H3)", "setting": "[3]", "value": 51.39}, {"measurement": "Pharmacophore torsion angle a(H4, O1, O2, N2)", "setting": "[3]", "value": 136.22}, {"measurement": "Pharmacophore torsion angle a(N1, CA1, O1, H4)", "setting": "[3]", "value": 1.43}, {"measurement": "Pharmacophore torsion angle a(O1, H4, O2, CA1)", "setting": "[3]", "value": "−83.48"}, {"measurement": "Pharmacophore torsion angle a(O1, O2, N2, C6)", "setting": "[4]", "value": 137.30}, {"measurement": "Pharmacophore torsion angle a(O1, O2, N2, CA2)", "setting": "[4]", "value": 123.48}]}
